Measurements: US10220025B1, “Self-emulsifying formulation of CARP-1 functional mimetics” (Florida A&M University, priority 2016, dated 2019)

Legend:
[1] = test system: parental and drug-resistant TNBC and SKBR-3 cells; test: scratch/wound healing cell migration assay; type: cell-based; settings: FIGS. 11B, 11C, 12A, 12B, 13A, 13B
Method: The TNBC cells migration in the absence or presence of CFMs was measured by the “scratch/wound healing” assay. Cells were seeded in a 6-well plate (˜10,000 cells/well), and when attached, a scratch was created in the cell monolayer using sterile pipette tip. The cells were then allowed to continue growing in the absence (Control) or presence of noted dose of each of the agents for indicated time periods. The cells were photographed at the beginning and at regular intervals during the treatment period, and the images from control cells were compared with the treated cells to determine the migration of the cells essentially as described before [Liang C C, Park A Y, Guan J L In vitro scratch assay: a convenient and inexpensive method for analysis of cell migration in vitro. Nat Protoc. 2007; 2:329-33]. The photomicrographs of the cells were recorded under different magnifications utilizing Zeiss microscope with attached 35 mm camera.

[2] = test system: drug-resistant TNBC cells; test: MTT viability assay, drug-resistant TNBC sublines (not singled out); type: cell-based; settings: 12 h; FIGS. 4A-4E
Method: Human TNBC MDA-MB-468 and MDA-MB-231, and mouse TNBC 4T1 cells were cultured in the chronic presence (>10 months) of Doxorubicin. The parental, wild-type cells were initially treated with 200 nM Doxorubicin for 2-3 weeks, followed by escalation to 400 nM, 1 μM, and 2 μM doses over a period of 3-4 weeks for each dose till resistance developed and the cells became well adapted to growth in […] of Doxorubicin for their routine culture. In the case of Cisplatin however, the human TNBC MDA-MB-468 and MDA-MB-231 were initially cultured in continuous presence of 1 μM Cisplatin for 3-4 weeks, and the dose was escalated to 1.5 μM and 3 μM over periods of 3-4 weeks for each dose till resistance developed and cells became adapted to routine culture in 3 μM dose. Subsequent, routine maintenance of the resistant cells in the presence of the respective drug was continued and multiple, resistant sublines for each of the TNBC cells were isolated and characterized for their growth inhibitory (GI)50 dose of respective therapeutic by the MTT-based viability assays as below.

[3] = test system: parental and drug-resistant TNBC and SKBR-3 cells; test: soft-agar clonogenic assay; type: cell-based; settings: 10 μM; FIGS. 11D, 12C, 12D, 13C
Method: A soft-agar sandwich assay was performed. Cells were sandwiched between 0.6% and 0.3% agarose in DMEM medium containing 5% FBS in a six-well chamber (500 cells/chamber), and treated with buffer (Control), or respective agent for noted time and dose at 37° C. humidified CO2 incubator. The colonies from multiple random fields were counted, compared to control and photographed essentially as described before [Jamal S, Cheryan V T, Muthu M, Munie S, Levi E, Ashour A E, Pass H I, Wali A, Singh M, Rishi A K. CARP-1 functional mimetics are a novel class of small molecule inhibitors of malignant pleural mesothelioma cells. PLos One. 2014; 9:e891; Ashour A E, Jamal S, Cheryan V T, Muthu M, Zoheir K M A, Alafeefy A M, Abd-allah A R, Levi E, Tarca A L, Polin L A, Rishi A K. CARP-1 functional mimetics: A novel class of small molecule inhibitors of medulloblastoma cell growth. PLoS One. 2013; 8:e66733; Zhang L, Levi E, Majumder P, Yu Y, Aboukameel A, Du J, Xu H, Mohammad R M, Hatfield J S, Wali A, Adsay V, Majumdar A P N, Rishi A K. Transactivator of transcription tagged cell cycle and apoptosis regulatory protein-1 peptides suppress growth of human breast cancer cells in vitro and in vivo. Mol Cancer Ther. 2007; 6:1661-1672].

[4] = test system: MCF-7, SK-BR-3 and MDA-MB-453 breast cancer cells; test: MTT viability assay, ADR plus CFM-4.16 in non-TNBC breast cancer cells; type: cell-based; settings: not shown
[5] = test system: MDA-MB-231 TNBC cells, wild type; test: MTT viability assay, parental MDA-MB-231; type: cell-based, human; settings: 10 μM dose
Method: In vitro inhibition of cell growth was assessed by MTT (3-[4, 5-dimethyltiazol-2-yl]-2.5-diphenyl tetrazolium bromide) reagent. Cells (5×10^3) were seeded in a 96-well culture plate and subsequently treated with respective agents at different concentrations as mentioned. Control cells were treated with 0.1% DMSO in culture medium. After treatment, the cells were incubated with 1 mg/ml of MTT reagent at 37° C. for 2-4 hours and then MTT was removed and 50 μL of DMSO was added, followed by colorimetric analysis using a multi-label plate reader at 560 nm (Victor3; PerkinElmer, Wellesley, Mass., USA).

[6] = test system: CSC-enriched populations from xenografts of parental and ADR-resistant MDA-MB-231 TNBC cells; test: MTT viability of tumor-derived CSC-enriched cells; type: cell-based, human; settings: dose-dependent; FIG. 15C
Method: The CSC-enriched cells were then treated with ADR, CFM-4.16, or a combination of both for noted dose and time. The cell viabilities were determined by MTT-based assay as in FIGS. 3A-3C, and plotted relative to the MTT values for the respective untreated controls. The histogram columns in panels B and C represent means of three and four independent experiments, respectively; bars, S.E. α, αα, β, ββ, ^*,**,#,##p=<0.03 relative to respective cells treated with ADR+CFM-4.16.
The TNBC cells were obtained from tumors derived from parental and drug-resistant cells or from a two-dimensional culture plate with ˜70-80% confluence. The cells were washed twice in 1×PBS and trypsinized following established protocols. […]
It was next clarified whether and to the extent CFM-4.16 was able to interfere with growth of mammospheres derived from parental and drug-resistant TNBC-cells. […] The growing mammosphere cultures were then exposed to CFM-4.16, and the viabilities of untreated and treated cultures were determined by an MTT-based assay. […]

**Q.** O=C1N(Cc2ccccc2Cl)c2ccccc2C12NN=C(c1cccc(Cl)c1)S2 (stereo not drawn) [CFM-4.16] was tested. Which “growth of cells in the areas of wound caused by a scratch” value [1] did it give?
**A.** The value was “prevented”.

**Q.** What about the “growth of ADR or Cisplatin-resistant TNBC sublines” value [2] of the same molecule?
**A.** Its value is “effectively inhibited growth”.

**Q.** What about the “colonies formed in soft agar” value [3] of the same molecule?
**A.** Its value is “significant reduction in size and number of colonies”.

**Q.** What about the “effect on ADR-mediated growth inhibition” value [4] of the same molecule?
**A.** Its value is “failed to enhance ADR-mediated growth inhibition”.

**Q.** What about the “inhibition / loss of cell viability” value [5] of the same molecule?
**A.** Its value is 80-100%.

**Q.** And the “viabilities of CSC enriched TNBC cells vs untreated” value [6]?
**A.** The value was “significant loss of viabilities”.
